One data set can be described thus: in vivo. Conditions: rat, iv, 0.033 mg/kg. More on the design: species or system Sprague-Dawley rats. The method in brief: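 Peptide plasma levels measured by UPLC-MS/MS (C18, product-ion monitoring) after protein precipitation or WCX SPE, calibrated in K2EDTA/protease-inhibitor rat plasma. Dosing in non-fasted male Sprague-Dawley rats (n=3): 0.033 mg/kg over 1 h by IV or SC infusion, or 0.3 mg/kg SC bolus; sampling up to 48 h.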

The nature of data set [1]: Acute food intake inhibition after SC bolus injection (BioDAQ). As to conditions: Long Evans rats on 45% high fat diet.
Data set [2] has as its target human amylin 3 receptor (hAMY3R) (Homo sapiens, UniProt O60896+P30988). Kind of data set: cAMP accumulation functional assay in HEK293-CNG cells expressing hAMY3R. It counts as cell-based. On the procedure:
(§1) In the presence of the non-specific cAMP/cGMP phosphodiesterase inhibitor 3-isobutyl-1-methylxanthine (IBMX), accumulating cAMP can be measured in vitro using common detection methods. Thus, it is possible to estimate an in vitro potency (pEC50) for peptides activating each of these receptors using fit dose-response curves for cAMP accumulation.
(§2) Cells were carried in growth media for no more than 10 passages prior to testing.
(§3) Peptides were serially diluted in the same buffer as above for each given assay condition. Two assay control solutions consisting of 50 mcM forskolin (cAMP system maximum) or assay buffer only (cAMP system minimum) were also prepared in the appropriate stimulation buffers. Five microliters of each peptide-concentration, or assay control was added to triplicate wells and incubated for thirty minutes at room temperature. During this incubation step a 4× europium labelled cAMP tracer solution and a 4× Ulight®-anti-cAMP solution (consisting of an anti-cAMP monoclonal antibody labelled with Ulight™ dye) was prepared according to the manufacturer's protocol (PerkinElmer LANCE Ultra cAMP kit). Following this incubation, 5 mcL europium labelled cAMP and 5 mcL Ulight anti-cAMP antibody was added to wells. The plate was covered with an adhesive cover to prevent evaporation and incubated for 60 minutes at room temperature in the dark. Plates were read on an Envision fluorescent plate reader (PerkinElmer).
(§4) Test values were first normalized to the forskolin induced cAMP system maximum and system minimum averaged values in Excel using the formula: (test value−system minavg)/(system maxavg−system minavg)*100. Normalized test values represent a baseline corrected percentage of the system maximum cAMP response induced by forskolin. Normalized data was analyzed from triplicate tests and used to estimate the EC50 for each peptide on each receptor. Data was fit in GraphPad Prism software (v7.04) using a 4-parameter logistic curve model: Y=Bottom+(Top−Bottom)/(1+10^((Log EC50−X))). The Hill slope was constrained to 1.0. EC50 values were converted to pEC50 values using the formula: pEC50=−Log (EC50).

Data set [3] addresses T1, human calcitonin receptor (hCTR) (Homo sapiens, UniProt P30988).
T1 sequence (P30988 25-474): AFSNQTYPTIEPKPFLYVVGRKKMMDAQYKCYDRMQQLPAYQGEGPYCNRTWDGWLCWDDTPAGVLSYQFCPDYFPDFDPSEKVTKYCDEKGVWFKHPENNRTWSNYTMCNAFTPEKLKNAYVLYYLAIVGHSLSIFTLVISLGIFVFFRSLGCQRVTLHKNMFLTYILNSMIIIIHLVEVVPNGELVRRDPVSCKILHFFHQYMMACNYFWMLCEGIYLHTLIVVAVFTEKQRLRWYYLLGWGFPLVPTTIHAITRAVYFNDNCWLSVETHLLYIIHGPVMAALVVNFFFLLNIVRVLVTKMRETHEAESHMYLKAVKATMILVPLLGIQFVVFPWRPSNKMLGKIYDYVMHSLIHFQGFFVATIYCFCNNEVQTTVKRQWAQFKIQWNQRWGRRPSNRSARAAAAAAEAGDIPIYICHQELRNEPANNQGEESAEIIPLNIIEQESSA
Kind of data set: cAMP accumulation functional assay in HEK293-CNG cells expressing hCTR. Format: cell-based. On the procedure:
as §1, §2, §3, §4

Setting [4] is: 0% HSA, read-out: pEC50 hAMY3R 0% HSA (converted).
[5] abbreviates: 4% HSA, read-out: pEC50 hAMY3R 4% HSA (converted).
[6] abbreviates: pEC50 hAMY3R 0.1% HSA, 0.1% HSA.
Setting [7] is: hCTR 0% HSA, 0% HSA, read-out: pEC50 hCTR 0% HSA (converted).
The mark [8] stands for this setting: hCTR 4% HSA, 4% HSA, read-out: pEC50 hCTR 4% HSA (converted).

The record followed here is US12018059B2, “Human amylin analog polypeptides and methods of use” (Intarcia Therapeutics, Inc., priority 2018, dated 2024).

Like-named read-outs stand apart in the source and are kept apart here. Starred links: 1 amine or outer side, 2 acyl side, 3 side chain; linkers in the order of their positions; H or OH if unused. Positions of bridges follow the written chain, without caps; N, C: chain ends. Non-standard residues stand in square brackets, D forms with d. Residues, ends and D or L forms follow the SMILES beside them. Groups on a side chain read outwards from the residue. *: point of attachment. X2 = O=C(O)CCCCCCCCCCCCCCCCC(=O)N[C@@H](CCC(=O)NCOCCOCC(=O)NCOCCOCC(=O)*)C(=O)O; C20 diacid = O=C(O)CCCCCCCCCCCCCCCCCCC(=O)*; γGlu = O=C(O)[C@H](CCC(=O)[*:2])N[*:1]; AEEA = NCCOCCOCC(=O)O

Chain of human amylin 3 receptor (hAMY3R) (O60896 24-148, one chain of several): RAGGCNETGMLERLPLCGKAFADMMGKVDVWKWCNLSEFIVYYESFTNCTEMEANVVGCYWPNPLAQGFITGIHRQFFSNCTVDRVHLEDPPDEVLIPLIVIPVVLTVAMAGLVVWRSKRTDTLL

Take `CC[C@H](C)[C@H](NC(=O)[C@@H]1CCCN1C(=O)CNC(=O)[C@H](Cc1ccccc1)NC(=O)[C@H](CC(N)=O)NC(=O)[C@H](CC(N)=O)NC(=O)[C@H](CO)NC(=O)[C@H](CO)NC(=O)[C@H](CCCCN)NC(=O)[C@H](Cc1c[nH]cn1)NC(=O)[C@H](CC(C)C)NC(=O)[C@H](CCCCNC(=O)COCCOCNC(=O)COCCOCNC(=O)CC[C@H](NC(=O)CCCCCCCCCCCCCCCCC(=O)O)C(=O)O)NC(=O)[C@H](CC(N)=O)NC(=O)[C@H](C)NC(=O)[C@H](CC(C)C)NC(=O)[C@H](CCCNC(=N)N)NC(=O)[C@H](CCC(N)=O)NC(=O)[C@@H](NC(=O)[C@H](C)NC(=O)[C@@H]1CSSC[C@H](NC(=O)[C@@H](N)CO)C(=O)N[C@@H](CC(N)=O)C(=O)N[C@@H]([C@@H](C)O)C(=O)N[C@@H](CO)C(=O)N[C@@H]([C@@H](C)O)C(=O)N1)[C@@H](C)O)C(=O)N[C@@H](CC(C)C)C(=O)N1CCC[C@H]1C(=O)N1CCC[C@H]1C(=O)N[C@H](C(=O)N[C@@H](CCCCN)C(=O)N[C@H](C(=O)NCC(=O)N[C@@H](CO)C(=O)N[C@@H](CCC(=O)O)C(=O)N[C@H](C(=O)N[C@@H](Cc1ccc(O)cc1)C(N)=O)[C@@H](C)O)C(C)C)[C@@H](C)O` [Compound A98] (H-SCNTSTCATQRLANK(X2)LHKSSNNFGPILPPTKVGSETY-NH2; disulfide 2-7; N-terminus assumed): in “in vivo”, the Vd was 0.159 L/kg, the clearance came to 7.14 mL/h/kg and the half-life was 17.4 h. In addition, in data set [1] (0-24 hr after acute SC dosing), the “Acute Food Intake % Inhibition vs vehicle” value came out at 23%. For the same molecule, the “Acute Food Intake % Inhibition vs vehicle” value in data set [1] (25-48 hr after acute SC dosing) turned out to be 24%.
As for `CC[C@H](C)[C@H](NC(=O)[C@@H]1CCCN1C(=O)CNC(=O)[C@H](Cc1ccccc1)NC(=O)[C@H](CC(N)=O)NC(=O)[C@H](CC(N)=O)NC(=O)[C@H](CO)NC(=O)[C@H](CO)NC(=O)[C@H](CCCCN)NC(=O)[C@H](Cc1c[nH]cn1)NC(=O)[C@H](CC(C)C)NC(=O)[C@@H](CCCCNC(=O)CC[C@H](NC(=O)CC[C@H](NC(=O)COCCOCCNC(=O)CC[C@H](NC(=O)CCCCCCCCCCCCCCCCCCC(=O)O)C(=O)O)C(=O)O)C(=O)O)NC(=O)[C@H](CC(N)=O)NC(=O)[C@H](C)NC(=O)[C@H](CC(C)C)NC(=O)[C@H](CCCNC(=N)N)NC(=O)[C@H](CCC(N)=O)NC(=O)[C@@H](NC(=O)[C@H](C)NC(=O)[C@@H]1CSSC[C@H](NC(=O)[C@@H](N)CO)C(=O)N[C@@H](CC(N)=O)C(=O)N[C@@H]([C@@H](C)O)C(=O)N[C@@H](CO)C(=O)N[C@@H]([C@@H](C)O)C(=O)N1)[C@@H](C)O)C(=O)N[C@@H](CC(C)C)C(=O)N1CCC[C@H]1C(=O)N1CCC[C@H]1C(=O)N[C@H](C(=O)N[C@@H](CCCCN)C(=O)N[C@H](C(=O)NCC(=O)N[C@@H](CO)C(=O)N[C@@H](CCC(=O)O)C(=O)N[C@H](C(=O)N[C@@H](Cc1ccc(O)cc1)C(N)=O)[C@@H](C)O)C(C)C)[C@@H](C)O` [Compound A100] (H-SCNTSTCATQRLAN[dK]([γGlu-γGlu-AEEA-γGlu-C20 diacid])LHKSSNNFGPILPPTKVGSETY-NH2; disulfide 2-7; N-terminus assumed), the EC50 is 0.00794 nM in data set [2] (setting [4]); 25.1 nM in data set [2] (setting [5]); 1.58 nM in data set [2] (setting [6]); 0.0316 nM in data set [3] (setting [7]); 7.94 nM in data set [3] (hCTR 0.1% HSA, 0.1% HSA); 79.4 nM in data set [3] (setting [8]). In addition, in the data set “in vivo”, the Vd is 0.14 L/kg. The same molecule gave a clearance in the data set “in vivo” of 4.75 mL/h/kg. In addition, in “in vivo”, the half-life is 21.4 h.
For `CC[C@H](C)[C@H](NC(=O)[C@@H]1CCCN1C(=O)CNC(=O)[C@H](Cc1ccccc1)NC(=O)[C@H](CC(N)=O)NC(=O)[C@H](CC(N)=O)NC(=O)[C@H](CO)NC(=O)[C@H](CO)NC(=O)[C@H](CCCCN)NC(=O)[C@H](Cc1c[nH]cn1)NC(=O)[C@H](CC(C)C)NC(=O)[C@H](CCC(=O)O)NC(=O)[C@H](CC(N)=O)NC(=O)[C@H](C)NC(=O)[C@H](CC(C)C)NC(=O)[C@H](CCCNC(=N)N)NC(=O)[C@H](CCC(N)=O)NC(=O)[C@@H](NC(=O)[C@H](C)NC(=O)[C@@H]1CSSC[C@H](NC(=O)[C@@H](N)CCCCNC(=O)CC[C@H](NC(=O)CC[C@H](NC(=O)COCCOCCNC(=O)COCCOCCNC(=O)CC[C@H](NC(=O)CCCCCCCCCCCCCCCCCCC(=O)O)C(=O)O)C(=O)O)C(=O)O)C(=O)N[C@@H](CC(N)=O)C(=O)N[C@@H]([C@@H](C)O)C(=O)N[C@@H](CO)C(=O)N[C@@H]([C@@H](C)O)C(=O)N1)[C@@H](C)O)C(=O)N[C@@H](CC(C)C)C(=O)N1CCC[C@H]1C(=O)N1CCC[C@H]1C(=O)N[C@H](C(=O)N[C@@H](CCCCN)C(=O)N[C@H](C(=O)NCC(=O)N[C@@H](CO)C(=O)N[C@@H](CCC(=O)O)C(=O)N[C@H](C(=O)N[C@@H](Cc1ccc(O)cc1)C(N)=O)[C@@H](C)O)C(C)C)[C@@H](C)O` [Compound A112] (H-K([γGlu-γGlu-AEEA-AEEA-γGlu-C20 diacid])CNTSTCATQRLANELHKSSNNFGPILPPTKVGSETY-NH2; disulfide 2-7), the EC50 is 0.00251 nM in data set [2] (setting [4]); 10 nM in data set [2] (setting [5]); 0.501 nM in data set [2] (setting [6]); 0.0126 nM in data set [3] (setting [7]); 3.16 nM in data set [3] (hCTR 0.1% HSA, 0.1% HSA); 31.6 nM in data set [3] (setting [8]). Also, in the data set “in vivo”, the Vd was determined as 0.0998 L/kg. In the data set “in vivo”, this molecule returned a clearance of 2.45 mL/h/kg. The half-life in the data set “in vivo” is 32.6 h.
Take `CC[C@H](C)[C@H](NC(=O)[C@@H]1CCCN1C(=O)CNC(=O)[C@H](Cc1ccccc1)NC(=O)[C@H](CC(N)=O)NC(=O)[C@H](CC(N)=O)NC(=O)[C@H](CO)NC(=O)[C@H](CO)NC(=O)[C@H](CCCCN)NC(=O)[C@H](Cc1c[nH]cn1)NC(=O)[C@H](CC(C)C)NC(=O)[C@H](CCC(=O)O)NC(=O)[C@H](CC(N)=O)NC(=O)[C@H](C)NC(=O)[C@H](CC(C)C)NC(=O)[C@H](CCCNC(=N)N)NC(=O)[C@H](CCC(N)=O)NC(=O)[C@@H](NC(=O)[C@H](C)NC(=O)[C@@H]1CSSC[C@H](NC(=O)[C@@H](N)CCCCNC(=O)CC[C@H](NC(=O)CCCCCCCCCCCCCCCCCCC(=O)O)C(=O)O)C(=O)N[C@@H](CC(N)=O)C(=O)N[C@@H]([C@@H](C)O)C(=O)N[C@@H](CO)C(=O)N[C@@H]([C@@H](C)O)C(=O)N1)[C@@H](C)O)C(=O)N[C@@H](CC(C)C)C(=O)N1CCC[C@H]1C(=O)N1CCC[C@H]1C(=O)N[C@H](C(=O)N[C@@H](CCCCN)C(=O)N[C@H](C(=O)NCC(=O)N[C@@H](CO)C(=O)N[C@@H](CCC(=O)O)C(=O)N[C@H](C(=O)N[C@@H](Cc1ccc(O)cc1)C(N)=O)[C@@H](C)O)C(C)C)[C@@H](C)O` [Compound A119] (H-K([γGlu-C20 diacid])CNTSTCATQRLANELHKSSNNFGPILPPTKVGSETY-NH2; disulfide 2-7; N-terminus assumed): the EC50 in data set [2] (setting [4]) was 0.00126 nM; in data set [2] (setting [5]), 3.16 nM; in data set [2] (setting [6]) it was 0.0631 nM; in data set [3] (setting [7]) it was 0.00631 nM; in data set [3] (hCTR 0.1% HSA, 0.1% HSA) it was 0.316 nM; in data set [3] (setting [8]), 12.6 nM.
